Source: patent publication US7037644B1, “Means and methods for monitoring non-nucleoside reverse transcriptase inhibitor antiretroviral therapy and guiding therapeutic decisions in the treatment of HIV/AIDS” (ViroLogic, Inc., priority 1998, dated 2006)
Entries after “also recorded” stand apart in the source; their conditions may differ.

Key:
Format in all cases: cell-based, HIV-1
[1] = tested on: K103N-RTV; test: Phenotypic susceptibility assay (site directed mutant RTV); conditions: for change in susceptibility: K103N; for loss of susceptibility (fold, IC50) vs wild type control RTV: K103N alone
Source text: (§1) The resistance test vectors containing a functional luciferase gene cassette were constructed and host cells were transfected with the resistance test vector DNA. The resistant test vectors contained patient-derived reverse transcriptase and protease sequences that were either susceptible or resistant to the antiretroviral agents, such as nucleoside reverse transcriptase inhibitors, non-nucleoside reverse transcriptase inhibitors and protease inhibitors. The resistance test vector viral particles produced by transfecting the resistance test vector DNA into host cells, either in the presence or absence of protease inhibitors, were used to infect target host cells grown either in the absence of NRTI or NNRTI or in the presence of increasing concentrations of the drug. The amount of luciferase activity produced in infected target host cells in the presence of drug was compared to the amount of luciferase produced in infected target host cells in the absence of drug. Drug resistance was measured as the amount of drug required to inhibit by 50% the luciferase activity detected in the absence of drug (inhibitory concentration 50%, IC50). The IC50 values were determined by plotting percent drug inhibition vs. log10 drug concentration.
(§2) Host cells were seeded in 10-cm-diameter dishes and were transfected several days after plating with resistance test vector plasmid DNA and the envelope expression vector. Transfections were performed using a calcium-phosphate precipitation procedure. The cell culture media containing the DNA precipitate was replaced with fresh medium, from one to 24 hours, after transfection. Cell culture media containing resistance test vector viral particles was harvested one to four days after transfection and was passed through a […] filter before being stored at […]. HIV capsid protein (p24) levels in the harvested cell culture media were determined by an EIA method as described by the manufacturer (SIAC; Frederick, Md.). Before infection, target cells (293 and 293/T) were plated in cell culture media. Control infections were performed using cell culture media from mock transfections (no DNA) or transfections containing the resistance test vector plasmid DNA without the envelope expression plasmid. One to three or more days after infection the media was removed and cell lysis buffer (Promega) was added to each well. Cell lysates were assayed for luciferase activity (FIG. 3). The inhibitory effect of the drug was determined using the following equation: % luciferase inhibition=1−(RLUluc [drug]÷RLUluc)×100 where RLUluc [drug] is the relative light unit of luciferase activity in infected cells in the presence of drug and RLUluc is the Relative Light Unit of luciferase activity in infected cells in the absence of drug. IC50 values were obtained from the sigmoidal curves that were generated from the data by plotting the percent inhibition of luciferase activity vs. the log10 drug concentration. The drug inhibition curves are shown in (FIG. 3).
The K101E, K103N and G190A mutations were introduced alone and in combination into resistance test vectors using the mega-primer method for site-directed mutagenesis (Sakar and Sommar, Ibid.).
(§3) The mutations Y188L, L100I and K103N were introduced alone and in combinationn into resistance test vectors using the mega-primer method for site-directed mutagenesis (Sakar and Sommar, Ibid.).

[2] = tested on: P236L-RTV; test: as above; conditions: P236L alone vs wild type reference RTV; also statements 'codon 236 alone or in combination'
Source text: as §1, §2
(§4) Genotypic changes that are observed to correlate with changes in phenotypic patterns of drug susceptibility are evaluated by construction of resistance test vectors containing the specific mutation on a defined, wild-type (drug susceptible) genetic background. Mutations may be incorporated alone and/or in combination with other known drug resistance mutations that are thought to modulate the susceptibility of HIV to a certain drug or class of drugs. Mutations are introduced into the resistance test vector through any of the widely known methods for site-directed mutagenesis. In one embodiment of this invention the mega-primer PCR method for site-directed mutagenesis is used. […]

[3] = tested on: RTV with P225H plus K103N, Y181C or both; test: as above; conditions: P225H with K103N and/or Y181C vs RTV lacking P225H; also statements 'codon 225 alone or in combination with 103'
Source text: as §1, §2, §4

[4] = tested on: K101E-G190S-RTV; test: as above; conditions: for change in susceptibility (fold, IC50) vs wild type control RTV: K101E and G190S; for change in susceptibility: mutations at codons 101 and 190 (190S)
Source text: as §1, §2
(§5) The K101E and G190S mutations were introduced alone and in combination into resistance test vectors using the megaprimer method for site-directed mutagenesis (Sakar and Sommar, Ibid.). Resistance test vectors containing the K101E mutation (K101E-RTV), the G190S mutation (G190S-RTV) were then tested using the phenotypic assay described earlier and the results were compared to those determined using a genetically defined resistance test vector that was wild type at positions 101 and 190. We determined the pattern of phenotypic susceptibility to the NNRTIs, delavirdine, nevirapine and efavirenz, in all three vectors.

[5] = tested on: K101E-RTV; test: as above; conditions: K101E alone
Source text: as §1, §2, §5

[6] = tested on: L100I_K103N-RTV; test: as above; conditions: for change in susceptibility: mutations at 100 and 103
Source text: as §1, §2, §3

[7] = tested on: K103N-Y188L-RTV; test: as above; conditions: for change in susceptibility: mutations at 103 and 188
Source text: as §1, §2, §3

[8] = tested on: RTV-B clone 1 (RT A98G, G190S); test: Phenotypic susceptibility assay (patient RTV); conditions: below 1 = increased susceptibility
Source text: as §1, with “Drug resistance was measured as the amount of drug required to inhibit by 50% the luciferase activity detected in the absence of drug (inhibitory concentration 50%, IC50).” left out
Host cells were seeded in 10-cm-diameter dishes and were transfected several days after plating with resistance test vector plasmid DNA and the envelope expression vector. […] HIV capsid protein (p24) levels in the harvested cell culture media were determined by an EIA method as described by the manufacturer (SIAC; Frederick, Md.). […] The inhibitory effect of the drug was determined using the following equation: % luciferase inhibition=1−(RLUluc [drug]÷RLUluc)×100 where RLUluc [drug] is the relative light unit of luciferase activity in infected cells in the presence of drug and RLUluc is the Relative Light Unit of luciferase activity in infected cells in the absence of drug. […]
A resistant test vector was constructed as described in Example 1 from a patient sample designated B. The anti-retroviral treatment this patient received is unknown. […] An IC50 was determined for the resistance test vector clone for each drug tested. […]

[9] = tested on: RTV-1033, patient 98-1033 (RT V106A, V189L, F227L); test: Phenotypic susceptibility assay (patient RTV); conditions: patient RTV pool
Source text: as §1, §2
A resistance test vector was constructed as described in Example 1 from a patient sample designated 98-1033. […]

| SMILES | change in susceptibility [1] | loss of susceptibility (fold, IC50) vs wild type control RTV [1] [fold] | change in susceptibility [2] | change in susceptibility [3] | change in susceptibility (fold, IC50) vs wild type control RTV [4] | change in susceptibility [4] | loss of susceptibility (fold, IC50) vs wild type control RTV [5] [fold] | change in susceptibility [6] | change in susceptibility [7] | change in susceptibility (fold, IC50) [8] [fold] | decrease in susceptibility (fold, IC50) [9] | loss of susceptibility (fold, IC50) vs wild type control RTV ([6]; L100I and K103N) [fold] | loss of susceptibility (fold, IC50) vs wild type control RTV ([7]; K103N and Y188L) |
| --- | --- | --- | --- | --- | --- | --- | --- | --- | --- | --- | --- | --- | --- |
| CC(C)Nc1cccnc1N1CCN(C(=O)c2cc3cc(NS(C)(=O)=O)ccc3[nH]2)CC1 [delavirdine] | reduced susceptibility; also recorded: resistance | 50 | less susceptible; also recorded: significant reduction; also recorded: decreased susceptibility; also recorded: decrease | more susceptible; also recorded: increase; also recorded: decreases the amount of delavirdine resistance | 1.4 fold | no change | 5 | substantial decrease | substantial decrease | 0.55 | 30 fold | – | – |
| O=C1Nc2ccc(Cl)cc2[C@@](C#CC2CC2)(C(F)(F)F)O1 [efavirenz] | – | 30 | no effect | little or no change | greater than 250 fold | substantial decrease | 5 | substantial decrease | substantial decrease | 250 | 200 fold | – | – |
| Cc1ccnc2c1NC(=O)c1cccnc1N2C1CC1 [nevirapine] | reduced susceptibility; also recorded: resistance | 55 | no significant change; also recorded: little or no change; also recorded: little or no reduction; also recorded: no reduction | did not significantly change; also recorded: little or no change; also recorded: does not decrease; also recorded: no effect | greater than 800 fold | substantial decrease | 12 | moderate decrease | substantial decrease | 640 | greater than 800 fold | 70 | greater than 800 fold |
